Measurements published in ChEMBL document CHEMBL3046074, “SnO2 nanoparticles mediated nontraditional synthesis of biologically active 9-chloro-6,13-dihydro-7-phenyl-5H-indolo [3,2-c]-acridine derivatives” (Med Chem Res, 2011).
≈ marks a conversion by molar mass, not a printed value.

Key:
Type in all cases: functional, cell-based
[1] = test system: Vero; test: Cytotoxicity against Chlorocebus aethiops (African green monkey) Vero cells by MTT assay; conditions: Chlorocebus sabaeus
[2] = test system: Erythrocyte; test: Hemolytic activity in Homo sapiens (human) Erythrocyte after 30 min; conditions: 0.5 h
[3] = test system: HeLa; test: Cytotoxicity against Homo sapiens (human) HeLa cells by MTT assay

SMILES | IC50 [1] [µg/mL] | EC50 [2] [µg/mL] | IC50 [3] [µg/mL]
Cc1ccc2[nH]c3c(c2c1)CCc1c-3nc2ccc(Cl)cc2c1-c1ccccc1 | > 100 | 212 (≈ 537 µM) | > 100
Cc1cccc2c3c([nH]c12)-c1nc2ccc(Cl)cc2c(-c2ccccc2)c1CC3 | > 100 | 458 (≈ 1160 µM) | > 100
Cc1ccc2c3c([nH]c2c1)-c1nc2ccc(Cl)cc2c(-c2ccccc2)c1CC3 | > 100 | 409 (≈ 1030 µM) | > 100
CC[C@@]1(O)C(=O)OCc2c1cc1n(c2=O)Cc2cc3ccccc3nc2-1 [CAMPTOTHECIN] | 58 (≈ 166 µM) | 430 (≈ 1230 µM) | 0.28 (≈ 0.804 µM)
